# Measured values reported in patent US9981909B2 (Janssen Pharmaceutica NV, priority 2008, dated 2018).
# Columns and labels:
# rat 5-HT7 receptor = rat 5-HT7 receptor (Rattus norvegicus (Rat), UniProt P32305); assay: r5-HT7 binding assay, competitive radioligand binding with [3H]5-CT
# Method in brief: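 Competition against [3H]5-CT on rat 5-HT7 HEK-293 membranes; Ki from radioactivity. Functional: 10 min compound, 100 nM 5-CT for 20 min, cAMP immunoassay after lysis.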
# human SERT = human SERT (Homo sapiens (Human), UniProt P31645); assay: human SERT binding assay with [3H]-citalopram on HEK-293 membranes; settings: read-out: hSERT binding Ki
# Experimental: Receptor binding was performed using membrane fractions prepared from the HEK-293 cell line recombinantly expressing rat 5-HT7 receptors (NCBI accession NM_022938). Compound affinity for the rat 5-HT7 receptor subtype was evaluated by competitive radioligand binding assays using 5-carboxamido[^3H]tryptamine ([^3H]5-CT) (Amersham Biosciences, cat. 90000403) detection. HitHunter™ cAMP assays are in-vitro based competitive immunoassays. The assay was performed on the HEK-293 cell line stably transfected with r5-HT7 receptor. Cells were pre-incubated with test compounds for 10 minutes. For antagonist testing, the cells were then challenged with 100 nM 5-CT for 20 minutes. Cells were then lysed and cAMP measured according to manufacturers protocol (Amersham, cat. NET791250UC) or [^3H]mesulergine (Amersham, cat. TRK1041). The assay was performed on membranes prepared from HEK-293 cells stably transfected with h5-HT6. Following centrifugation, membranes were resuspended and incubated for 60 min at room temperature with 1.7 nM [^3H]LSD in the presence of increasing concentration of test compounds. Nonspecific binding was defined in the presence of 10 μM clozapine (Tocris, cat. TRK1068). Homogenized HEK-293 membranes expressing the human SERT were incubated in 50 mM Tris-HCl (pH 7.5), 120 mM NaCl, 5 mM KCl with [^3H]-citalopram (3 nM) with or without test compounds. Nonspecific binding was determined in the presence of 10 μM fluoxetine. Radioactivity readouts and Ki values were performed as previously described for r5-HT7. […] Compounds were assayed in their free form or as salts, as indicated in the Examples section above.
# [1] = rat 5-HT7 receptor, HEK-293 membranes
# human SERT, sequence (P31645 whole entry): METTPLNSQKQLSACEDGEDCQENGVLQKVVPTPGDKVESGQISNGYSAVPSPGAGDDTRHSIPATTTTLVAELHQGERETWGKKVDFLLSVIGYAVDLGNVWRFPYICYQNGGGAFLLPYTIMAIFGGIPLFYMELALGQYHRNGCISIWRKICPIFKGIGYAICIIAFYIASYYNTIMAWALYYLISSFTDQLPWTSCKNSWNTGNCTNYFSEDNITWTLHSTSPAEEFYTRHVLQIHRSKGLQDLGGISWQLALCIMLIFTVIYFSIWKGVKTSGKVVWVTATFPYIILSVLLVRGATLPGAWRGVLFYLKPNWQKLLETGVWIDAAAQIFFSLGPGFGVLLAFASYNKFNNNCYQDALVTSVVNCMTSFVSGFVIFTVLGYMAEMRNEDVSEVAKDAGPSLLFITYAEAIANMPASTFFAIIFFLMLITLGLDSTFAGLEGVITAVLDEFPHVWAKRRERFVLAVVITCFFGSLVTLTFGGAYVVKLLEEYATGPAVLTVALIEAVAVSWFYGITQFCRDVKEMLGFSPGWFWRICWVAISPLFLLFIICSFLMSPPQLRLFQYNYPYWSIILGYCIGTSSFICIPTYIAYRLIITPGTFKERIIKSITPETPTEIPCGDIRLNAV
# rat 5-HT7 receptor, sequence (P32305 1-435): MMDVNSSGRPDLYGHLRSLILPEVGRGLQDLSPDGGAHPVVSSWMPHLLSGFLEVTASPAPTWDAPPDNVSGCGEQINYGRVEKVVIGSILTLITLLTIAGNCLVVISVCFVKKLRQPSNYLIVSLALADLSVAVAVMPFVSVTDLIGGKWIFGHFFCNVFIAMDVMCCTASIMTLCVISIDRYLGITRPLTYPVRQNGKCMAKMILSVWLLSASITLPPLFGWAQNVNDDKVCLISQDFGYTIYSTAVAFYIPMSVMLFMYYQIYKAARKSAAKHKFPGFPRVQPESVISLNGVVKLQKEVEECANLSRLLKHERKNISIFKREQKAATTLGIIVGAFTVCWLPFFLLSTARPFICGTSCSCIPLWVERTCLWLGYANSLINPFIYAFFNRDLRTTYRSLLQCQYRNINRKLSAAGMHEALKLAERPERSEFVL
SMILES,"Ki (rat 5-HT7 receptor; rat 5-HT7, HEK-293 membranes) [nM]",Ki (human SERT) [nM],Ki (rat 5-HT7 receptor; [1]) [nM]
"Clc1ccc(Oc2nc3ccccc3o2)c(OC2CNC2)c1 [Example 262, 2-[2-(Azetidin-3-yloxy)-4-chloro-phenoxy]-benzooxazole]",31,112,–
"Clc1ccc(OCCOc2ccccc2)c(OC2CNC2)c1 [Example 171, 3-[5-Chloro-2-(2-phenoxy-ethoxy)-phenoxy]-azetidine]",–,234,7
"FC(F)(F)c1ccccc1COc1ccc(Cl)cc1OC1CNC1 [Example 32, 3-[5-Chloro-2-(2-trifluoromethyl-benzyloxy)-phenoxy]-azetidine]",–,29,53
"Clc1ccc(OC2CC(c3ccccc3)C2)c(OC2CNC2)c1 (stereo not drawn) [Example 228, 3-[5-Chloro-2-(3-phenyl-cyclobutoxy)-phenoxy]-azetidine]",9,72,–
"Clc1ccc(OCc2ccc3ncsc3c2)c(OC2CNC2)c1 [Example 84, 6-[2-(Azetidin-3-yloxy)-4-chloro-phenoxymethyl]-benzothiazole]",–,61,34
"CC(Oc1ccc(Cl)cc1OC1CN(C(C)(C)C)C1)c1cccc(C(F)(F)F)c1 (stereo not drawn) [Example 231, 1-tert-Butyl-3-[5-chloro-2-[1-(3-trifluoromethyl-phenyl)-ethoxy]-phenoxy]-azetidine]",15,4480,–
"CC(Oc1ccc(Cl)cc1OC1CN(C)C1)c1cccc(C(F)(F)F)c1 (racemic) [Example 109, (±)-3-[5-Chloro-2-[1-(3-trifluoromethyl-phenyl)-ethoxy]-phenoxy]-1-methyl-azetidine]",–,2900,5
"FC(F)(F)c1ccc(COc2ccc(Cl)cc2OC2CNC2)cc1 [Example 43, 3-[5-Chloro-2-(4-trifluoromethyl-benzyloxy)-phenoxy]-azetidine]",–,86,15
"Clc1ccc(OCC2CCc3ccccc3O2)c(OC2CNC2)c1 (stereo not drawn) [Example 165, 3-[5-Chloro-2-(chroman-2-ylmethoxy)-phenoxy]-azetidine]",–,95,16
"FC1(F)Oc2ccc(COc3ccc(Cl)cc3OC3CNC3)cc2O1 [Example 86, 3-[5-Chloro-2-(2,2-difluoro-benzo[1,3]dioxol-5-ylmethoxy)-phenoxy]-azetidine]",–,121,38
"Clc1ccc(OCc2cc3ccccc3o2)c(OC2CNC2)c1 [Example 89, 3-[2-(Benzofuran-2-ylmethoxy)-5-chloro-phenoxy]-azetidine]",–,242,25
"Clc1cccc(COc2cc(Br)ccc2OC2CNC2)c1 [Example 22, 3-[4-Bromo-2-(3-chloro-benzyloxy)-phenoxy]-azetidine]",–,28,125
"Fc1ccc(OCc2ccc(C(F)(F)F)o2)c(OC2CNC2)c1 [Example 208, 3-[5-Fluoro-2-(5-trifluoromethyl-furan-2-ylmethoxy)-phenoxy]-azetidine]",–,303,365
"FC(F)(F)c1ccc(COc2ccc(Br)cc2OC2CCNCC2)o1 [Example 64, 4-[5-Bromo-2-(5-trifluoromethyl-furan-2-ylmethoxy)-phenoxy]-piperidine]",–,43,17
"FC(F)(F)Oc1ccc(COc2ccc(Cl)cc2OC2CNC2)cc1 [Example 42, 3-[5-Chloro-2-(4-trifluoromethoxy-benzyloxy)-phenoxy]-azetidine]",–,578,35
"CC(Oc1ccc(Cl)cc1OC1CNC1)c1ccccc1 (racemic) [Example 145, (±)-3-[5-Chloro-2-(1-phenyl-ethoxy)-phenoxy]-azetidine]",–,773,40
"FC(COc1ccc(Cl)cc1OC1CNC1)c1ccccc1 (stereo not drawn) [Example 187, 3-[5-Chloro-2-(2-fluoro-2-phenyl-ethoxy)-phenoxy]-azetidine]",–,340,36
"Cc1ccc2c(c1)CCC2Oc1ccc(Br)cc1OC1CNC1 (racemic) [Example 155, (±)-3-[5-Bromo-2-(5-methyl-indan-1-yloxy)-phenoxy]-azetidine]",–,45,19
CC1(Oc2cc(Br)ccc2OCc2ccc(C(F)(F)F)o2)CNC1 [Example 216],16,36,–
"FCC(Oc1ccc(Br)cc1OC1CNC1)c1ccccc1 (stereo not drawn) [Example 142, 3-[5-Bromo-2-(2-fluoro-1-phenyl-ethoxy)-phenoxy]-azetidine]",–,613,91

SMILES,"Ki (rat 5-HT7 receptor; rat 5-HT7, HEK-293 membranes) [nM]",Ki (human SERT) [nM],Ki (rat 5-HT7 receptor; [1]) [nM]
"Cn1nnc2ccc(COc3ccc(Cl)cc3OC3CNC3)cc21 [Example 85, 6-[2-(Azetidin-3-yloxy)-4-chloro-phenoxymethyl]-1-methyl-1H-benzotriazole]",–,404,95
"Clc1ccc(OCc2cccnc2)c(OC2CNC2)c1 [Example 52, 3-[2-(Azetidin-3-yloxy)-4-chloro-phenoxymethyl]-pyridine]",–,89,110
"Clc1ccc(OCc2csc(-c3cccs3)n2)c(OC2CNC2)c1 [Example 28, 4-[2-(Azetidin-3-yloxy)-4-chloro-phenoxymethyl]-2-thiophen-2-yl-thiazole]",–,683,49
"CC(C)(C)N1CC(Oc2cc(Cl)ccc2OCc2cccc(C(F)(F)F)c2)C1 [Example 230, 1-tert-Butyl-3-[5-chloro-2-(3-trifluoromethyl-benzyloxy)-phenoxy]-azetidine]",6,1200,–
"FC(F)(F)c1ccc(COc2ccc(Br)cc2CC2CNC2)o1 [Example 232, 3-[5-Bromo-2-(5-trifluoromethyl-furan-2-ylmethoxy)-benzyl]-azetidine]",3,1,–
"Clc1cccc(COc2ccc(Br)cc2OCC2CNC2)c1 [Example 233, 3-[5-Bromo-2-(3-chloro-benzyloxy)-phenoxymethyl]-azetidine]",27,23,–
"CC(Oc1ccc(Cl)cc1OC1CNC1)c1ccc(F)c(C(F)(F)F)c1 (racemic) [Example 117, (±)-3-[5-Chloro-2-[1-(4-fluoro-3-trifluoromethyl-phenyl)-ethoxy]-phenoxy]-azetidine]",–,71,41
"CC(Oc1ccc(Cl)cc1OC1CNC1)c1cccc(F)c1 (racemic) [Example 115, (±)-3-[5-Chloro-2-[1-(3-fluoro-phenyl)-ethoxy]-phenoxy]-azetidine]",–,202,33
"Clc1ccc(OCc2ccccn2)c(OC2CNC2)c1 [Example 51, 2-[2-(Azetidin-3-yloxy)-4-chloro-phenoxymethyl]-pyridine]",–,86,387
"Clc1ccc(OCc2ccncc2)c(OC2CNC2)c1 [Example 53, 4-[2-(Azetidin-3-yloxy)-4-chloro-phenoxymethyl]-pyridine]",–,464,260
"CC(Oc1ccc(Cl)cc1OC1CNC1)c1ccc(Cl)cc1 (racemic) [Example 123, (±)-3-[5-Chloro-2-[1-(4-chloro-phenyl)-ethoxy]-phenoxy]-azetidine]",–,25,42
"COc1cccc2c1CC(Oc1ccc(Cl)cc1OC1CNC1)C2 (stereo not drawn) [Example 178, 3-[5-Chloro-2-(4-methoxy-indan-2-yloxy)-phenoxy]-azetidine]",–,131,17
"CC(Oc1ccc(Cl)cc1OC1CNC1)c1nc2ccccc2s1 (stereo not drawn) [Example 131, 2-[1-[2-(Azetidin-3-yloxy)-4-chloro-phenoxy]-ethyl]-benzothiazole]",–,1360,73
"CC1(Oc2cc(Br)ccc2OCc2cccc(Cl)c2)CNC1 [Example 212, 3-[5-Bromo-2-(3-chloro-benzyloxy)-phenoxy]-3-methyl-azetidine]",53,41,–
"FC(F)(F)c1ccc(COc2ccc(Cl)cc2OC2CNC2)c(C(F)(F)F)c1 [Example 45, 3-[2-(2,4-Bis-trifluoromethyl-benzyloxy)-5-chloro-phenoxy]-azetidine]",–,197,3160
"CC(Oc1ccc(Cl)cc1OC1CCNCC1)c1cccc(Cl)c1 (racemic) [Example 136, (±)-4-[5-Chloro-2-[1-(3-chloro-phenyl)-ethoxy]-phenoxy]-piperidine]",–,98,29
"C[C@H]1[C@H](Oc2cc(Br)ccc2OCc2cccc(F)c2)CN1Cc1ccccc1 (relative stereo) [Example 221, trans-1-Benzyl-3-[5-bromo-2-(3-fluoro-benzyloxy)-phenoxy]-2-methyl-azetidine]",147,5000,–
"C[C@@H]1[C@@H](Oc2ccc(Cl)cc2OC2CNC2)CN1Cc1ccccc1 (racemic) [Example 223, (±)-3-[5-Chloro-2-(trans-1-benzyl-2-methyl-azetidin-3-ol)-phenoxy]-azetidine]",145,9000,–
"CS(=O)(=O)c1cccc(COc2ccc(Cl)cc2OC2CNC2)c1 [Example 27, 3-[5-Chloro-2-(3-methanesulfonyl-benzyloxy)-phenoxy]-azetidine]",–,1680,229
